A word on the pEC50: it is the EC50 on a negative log10 scale, so that one unit is a factor of ten.

pEC50: −log10 of the molar value.

From patent US9926264B2, “Phenylcarbamate derivatives as formyl peptide receptor modulators” (Allergan, Inc., priority 2013, dated 2018) come the findings set out here.

The experiment addresses T1, FPR2 (Homo sapiens, UniProt P25090).
T1 construct: expressed in transfected cells; host or cells: CHO-Gα16 cells
T1 sequence (P25090 1-351): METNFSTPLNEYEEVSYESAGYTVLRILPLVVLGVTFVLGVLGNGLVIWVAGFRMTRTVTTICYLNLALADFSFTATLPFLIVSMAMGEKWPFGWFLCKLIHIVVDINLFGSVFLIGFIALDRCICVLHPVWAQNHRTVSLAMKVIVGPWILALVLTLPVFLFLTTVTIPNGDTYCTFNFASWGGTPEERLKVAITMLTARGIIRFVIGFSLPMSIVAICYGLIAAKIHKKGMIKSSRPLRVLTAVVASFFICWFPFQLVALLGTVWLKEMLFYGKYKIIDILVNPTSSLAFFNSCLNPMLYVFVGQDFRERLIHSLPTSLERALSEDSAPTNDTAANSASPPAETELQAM
The experiment is described as follows: compound-induced calcium activity on FLIPR Tetra in CHO-Gα16 cells stably expressing FPR2. Format: cell-based. The conditions noted are these: for Emax: efficacy value in brackets after EC50, read-out: FPR2 Gα16-CHO (% eff); for pEC50: tested 0.61 to 10,000 nM. How it is done: CHO-Gα16 cells stably expressing FPR2 were cultured in (F12, 10% FBS, 1% PSA, 400 μg/ml geneticin and 50 μg/ml hygromycin) and HEK-Gqi5 cells stable expressing FPR1 were cultured in (DMEM high glucose, 10% FBS, 1% PSA, 400 μg/ml geneticin and 50 μg/ml hygromycin). In general, the day before the experiment, 18,000 cells/well were plated in a 384-well clear bottom poly-D-lysine coated plate. The following day the screening compound-induced calcium activity was assayed on the FLIPR^Tetra. The drug plates were prepared in 384-well microplates using the EP3 and the MultiPROBE robotic liquid handling systems. Compounds were tested at concentrations ranging from 0.61 to 10,000 nM. Results are expressed as EC50 (nM) and % efficacy values.

Take `CCN(CC(=O)OC(C)(C)C)C(=O)[C@H](CC(C)C)OC(=O)Nc1ccc(C(F)(F)F)cc1` [Compound 13, tert-Butyl {Ethyl[(2S)-4-methyl-2-({[4-(trifluoromethyl)phenyl]carbamoyl}oxy)pentanoyl]amino}acetate]: the Emax was 99% and the pEC50 is 7.78.

Consider `CC(C)C[C@H](OC(=O)Nc1ccc(Br)cc1)C(=O)NCc1nnn[nH]1` [Compound 14, (2S)-4-Methyl-1-oxo-1-[(1H-tetrazol-5-ylmethyl)amino]pentan-2-yl (4-bromophenyl)carbamate], for which the Emax came to 101% and the pEC50 was 8.89.

For `CC(C)C[C@H](OC(=O)Nc1ccc(C(F)(F)F)cc1)C(=O)NCc1nnn[nH]1` [Compound 15, (2S)-4-methyl-1-oxo-1-[(1H-tetrazol-5-ylmethyl)amino]pentan-2-yl [4-(trifluoromethyl)phenyl]carbamate], the Emax is 96% and the pEC50 is 8.44.

As to `CC(C)C[C@H](OC(=O)Nc1ccc(Br)cc1)C(=O)N(C)Cc1nnn[nH]1` [Compound 16, (2S)-4-methyl-1-[methyl(1H-tetrazol-5-ylmethyl)amino]-1-oxopentan-2-yl (4-bromophenyl)carbamate], the Emax turned out to be 98% and the pEC50 is 9.09.

Take `CC(C)C[C@H](OC(=O)Nc1ccc(C(F)(F)F)cc1)C(=O)N(C)Cc1nnn[nH]1` [Compound 17, (2S)-4-methyl-1-[methyl(1H-tetrazol-5-ylmethyl)amino]-1-oxopentan-2-yl [4-(trifluoromethyl)phenyl]carbamate]: the Emax worked out at 91% and the pEC50 was 8.62.

`CC(=O)OCCNC(=O)[C@H](CC(C)C)OC(=O)Nc1ccc(C(F)(F)F)cc1` [Compound 18, 2-{[(2S)-4-Methyl-2-({[4-(trifluoromethyl)phenyl]carbamoyl}oxy)pentanoyl]amino}ethyl acetate]: the Emax amounted to 89% and the pEC50 was 6.71.

`CC(C)C[C@H](OC(=O)Nc1ccc(Br)cc1)C(=O)NCC(=O)O` [Compound 19, {[(2S)-2-{[(4-Bromophenyl)carbamoyl]oxy}-4-methylpentanoyl]amino}acetic acid]: the Emax is 101% and the pEC50 is 9.08.

Regarding `CC(C)C[C@H](OC(=O)Nc1ccc(C(F)(F)F)cc1)C(=O)NCC(=O)O` [Compound 20, {[(2S)-4-Methyl-2-({[4-(trifluoromethyl)phenyl]carbamoyl}oxy)pentanoyl]amino}acetic acid], the Emax was determined as 99% and the pEC50 was 8.41.

For the molecule `CC(C)C[C@H](OC(=O)Nc1ccc(Br)cc1)C(=O)N(C)CC(=O)O` [Compound 21, {[(2S)-2-{[(4-Bromophenyl)carbamoyl]oxy}-4-methylpentanoyl](methyl)amino}acetic acid], the Emax came out at 106% and the pEC50 was 9.60.

As to `CCCN(CC(=O)O)C(=O)[C@H](CC(C)C)OC(=O)Nc1ccc(Br)cc1` [Compound 22, {[(2S)-2-{[(4-Bromophenyl)carbamoyl]oxy}-4-methylpentanoyl](propyl)amino}acetic acid], the Emax was determined as 91% and the pEC50 is 9.36.

`CC(C)C[C@H](OC(=O)Nc1ccc(Br)cc1)C(=O)N(CC(=O)O)C(C)C` [Compound 23, {[(2S)-2-{[(4-Bromophenyl)carbamoyl]oxy}-4-methylpentanoyl](propan-2-yl)amino}acetic acid]: the Emax came to 105% and the pEC50 was 9.49.

On to `CCN(CC(=O)O)C(=O)[C@H](CC(C)C)OC(=O)Nc1ccc(Br)cc1` [Compound 24, {[(2S)-2-{[(4-Bromophenyl)carbamoyl]oxy}-4-methylpentanoyl](ethyl)amino}acetic acid], for which the Emax came out at 95% and the pEC50 is 9.62.

As for `CC(C)C[C@H](OC(=O)Nc1ccc(C(F)(F)F)cc1)C(=O)N(C)CC(=O)O` [Compound 25, {Methyl[(2S)-4-methyl-2-({[4-(trifluoromethyl)phenyl]carbamoyl}oxy)pentanoyl]amino}acetic acid], the Emax came to 97% and the pEC50 was 9.03.

Take `CCN(CC(=O)O)C(=O)[C@H](CC(C)C)OC(=O)Nc1ccc(C(F)(F)F)cc1` [Compound 26, {Ethyl[(2S)-4-methyl-2-({[4-(trifluoromethyl)phenyl]carbamoyl}oxy)pentanoyl]amino}acetic acid]: the Emax came to 98% and the pEC50 was 9.54.

Regarding `CC(C)C[C@H](OC(=O)Nc1ccc(Br)cc1)C(=O)N(C)CCOS(=O)(=O)O` [Compound 27, (2S)-4-Methyl-1-{methyl[2-(sulfooxy)ethyl]amino}-1-oxopentan-2-yl (4-bromophenyl)carbamate], the Emax was determined as 99% and the pEC50 was 8.06.

On to `CC(C)C[C@H](OC(=O)Nc1ccc(C(F)(F)F)cc1)C(=O)NCS(=O)(=O)O` [Compound 28, ({(2S)-4-methyl-2-[({[4-(trifluoromethyl)phenyl]amino}carbonyl)oxy]pentanoyl}amino)methanesulfonic acid], for which the Emax was found to be 85% and the negative logarithm of the EC50 (pEC50) is 8.37.

For `CCCN(CC(=O)OC(C)(C)C)C(=O)[C@H](CC(C)C)OC(=O)Nc1ccc(C(F)(F)F)cc1` [Compound 29, tert-Butyl [{(2S)-4-methyl-2-[({[4-(trifluoromethyl)phenyl]amino}carbonyl)oxy]pentanoyl}(propyl)amino]acetate], the Emax came to 101% and the pEC50 was 7.94.

For the molecule `CC(C)C[C@H](OC(=O)Nc1ccc(C(F)(F)F)cc1)C(=O)N(CC(=O)OC(C)(C)C)C(C)C` [Compound 30, tert-Butyl (Isopropyl{(2S)-4-methyl-2-[({[4-(trifluoromethyl)phenyl]amino}carbonyl)oxy]pentanoyl}amino)acetate], the Emax came to 76% and the pEC50 was 6.52.

Turning to `CCN(Cc1nnn[nH]1)C(=O)[C@H](CC(C)C)OC(=O)Nc1ccc(Br)cc1` [Compound 31, (1S)-1-{[ethyl(1H-tetrazol-5-ylmethyl)amino]carbonyl}-3-methylbutyl (4-bromophenyl)carbamate], the Emax is 95% and the pEC50 is 9.52.

Consider `CCN(Cc1nnn[nH]1)C(=O)[C@H](CC(C)C)OC(=O)Nc1ccc(C(F)(F)F)cc1` [Compound 32, (1S)-1-{[ethyl(1H-tetrazol-5-ylmethyl)amino]carbonyl}-3-methylbutyl [4-(trifluoromethyl)phenyl]carbamate], for which the Emax was determined as 100% and the pEC50 was 9.18.

As for `CC(C)C[C@H](OC(=O)Nc1ccc(Br)cc1)C(=O)NCCNC(=O)OC(C)(C)C` [Compound 33, (1S)-1-[({2-[(tert-butoxycarbonyl)amino]ethyl}amino)carbonyl]-3-methylbutyl (4-bromophenyl)carbamate], the Emax stood at 103% and the pEC50 was 6.40.

With `CC(C)(C)OC(=O)CNC(=O)[C@H](Cc1ccccc1)OC(=O)Nc1ccc(Br)cc1` [Compound 34, tert-Butyl {[(2S)-2-({[(4-bromophenyl)amino]carbonyl}oxy)-3-phenylpropanoyl]amino}acetate], the Emax was 103% and the negative-log EC50 (pEC50) was 6.97.

Take `O=C(Nc1ccc(Br)cc1)O[C@@H](Cc1ccccc1)C(=O)NCc1nnn[nH]1` [Compound 35, (1S)-1-benzyl-2-oxo-2-[(1H-tetrazol-5-ylmethyl)amino]ethyl (4-bromophenyl)carbamate]: the Emax turned out to be 103% and the pEC50 was 9.08.
